Reference: patent publication US11169156B2, “Long wavelength voltage sensitive dyes” (The Regents of the University of California, priority 2015, dated 2021)
“Also recorded” adds a separate entry of the source.

Assays:
[1] = In vitro cross excitation in aqueous buffer (emission scans with differing excitation wavelengths); format: physicochemical; conditions: emission 680 nm
Procedure: FIG. 12A-C provides for in vitro cross excitation of BeRST 1 and BR. Emission scans of (A) BeRST 1 and (B) BR in aqueous buffer (50 mM TBS, pH 7.5, 0.1% SDS) with differing excitation wavelengths. (C) Relative fluorescence emission intensity at 680 nm vs. excitation wavelength for BeRST 1 (black bars) and BR (grey bars).
Stock solutions of BR and BeRST 1 were prepared in DMSO (1.0-10 mM) and diluted with TBS (50 mM Tris-HCl, pH 7.5, 0.15 M NaCl) solution containing 0.10% (w/w) SDS (1:100 to 1:1000 dilution). UV-Vis absorbance and fluorescence spectra were recorded using a Shimadzu 2501 Spectrophotometer (Shimadzu) and a Quantamaster Master 4 L-format scanning spectrofluorometer (Photon Technologies International). The fluorometer is equipped with an LPS-220B 75-W xenon lamp and power supply, A-1010B lamp housing with integrated igniter, switchable 814 photon-counting/analog photomultiplier detection unit, and MD5020 motor driver. Samples were measured in 1-cm path length quartz cuvettes (Starna Cells). Relative quantum yields were measured in TBS solution containing 0.10% (w/w) SDS or in CH3OH and referenced to cresyl violet in CH3OH, which has a quantum yield of 0.54.

HEK cells = assay: Voltage sensitivity in HEK cells, whole-cell voltage clamp with fluorescence imaging; format: cell-based, Human; conditions: for voltage sensitivity, fractional change in fluorescence: 680 nm emission, n=4 cells
Procedure: Functional imaging of BeRST 1 was performed using a 20× objective paired with image capture from the EMCCD camera at a sampling rate of 0.5 kHz. BeRST 1 was excited using the 633 nm LED with an intensity of 6.7 W/cm^2. For initial voltage characterization (see, FIG. 4) emission was collection with the QUAD filter and dichroic (see above). For investigation into voltage sensitivity during excitation cross-talk (see, FIG. 11) BeRST 1 was excited by a 633 nm LED as above and 390 nm light (violet LED, 20 nm bandpass) with an intensity of 3.3 W/cm^2 and emission was collected with a 680/10 nm bandpass emission filter.
(§1) Analysis of voltage sensitivity in HEK cells was performed using custom Matlab routines. Briefly, a region of interest (ROI) was selected automatically based on fluorescence intensity and applied as a mask to all image frames. Fluorescence intensity values were calculated at known baseline and voltage step epochs. For analysis of BeRST 1 voltage responses in neurons, regions of interest encompassing cell bodies were drawn in ImageJ and the mean fluorescence intensity for each frame extracted. The photostability of BeRST 1 allowed for the calculation of ΔF/F values by subtracting a mean background value from all raw fluorescence frames, bypassing the noise amplification which arises from subtracting background for each frame. All example traces were not averaged. For comparisons of action potentials recorded electrophysiologically and optically, imaging traces were analyzed using spike detection algorithms in the Clampfit 10 software (Molecular Devices). For cross-excitation quantification images were background subtracted. ROIs were made by thresholding to the 25% of the maximum pixel intensity to remove non-stained areas. Mean intensity values for stained neurons were calculated.
For whole-cell, voltage clamp recordings in HEK 293T cells were held at −60 mV and 100 ms hyper- and de-polarizing steps applied from −100 to +100 mV in 20 mV increments.

rat hippocampal neurons [2] = assay: Effect of dye loading on action potential firing, whole-cell patch clamp without imaging; format: cell-based; conditions: neurons with or without 1 μM dye, n=12 and 11
Procedure: To test if loading of BeRST 1 onto the membrane of neurons has any effect on their action potential firing, ten 500 ms current steps were injected into neurons, in increments of […]. The first action potential from each sweep was analyzed in Clampfit 10 software (Molecular Devices) to give amplitude and kinetic data. The cell capacitance determined by the Clampex software during recording. To evoke single action potentials for electrophysiological and imaging comparisons, short (10 ms) current injections were applied which were 2× the threshold required to evoke a single action potential. Analysis of action potentials was performed using spike detection algorithms in the Clampfit 10 software.

[3] = Spectroscopic studies (absorbance, emission, quantum yield) in vitro; format: physicochemical; conditions: for quantum yield (Φfl): referenced to cresyl violet; for emission maximum: aqueous buffer
rat hippocampal neurons [4] = assay: Imaging of action potentials evoked by extracellular field stimulation in hippocampal neurons; format: cell-based
Procedure: Hippocampi were dissected from embryonic day 18 Sprague Dawley rats (Charles River Laboratory) in cold sterile HBSS (zero Ca^2+, zero Mg^2+). All dissection products were supplied by Invitrogen, unless otherwise stated. Hippocampal tissue was treated with trypsin (2.5%) for 15 min at 37° C. The tissue was triturated using fire polished Pasteur pipettes, in minimum essential media (MEM) supplemented with 5% fetal bovine serum (FBS; Thermo Scientific), 2% B-27, 2% 1M D-glucose (Fisher Scientific) and 1% glutamax. The dissociated cells were plated onto 12 mm diameter coverslips (Fisher Scientific) pre-treated with PDL (as above) at a density of 30,000-40,000 cells per coverslip in MEM supplemented media (as above). Neurons were maintained at 37° C. in a humidified incubator with 5% CO2. At 3 days in vitro (DIV) half of the MEM supplemented media was removed and replaced with Neurobasal media containing 2% B-27 supplement and 1% glutamax. Transfection of genetic tools was carried out using Lipofectamine 3000 at 7 DIV. Functional imaging was performed on mature neurons 13-20 DIV, except electrophysiological experiments which were performed on 12-15 DIV neurons.
Extracellular field stimulation was delivered by Grass Stimulator connected to a recording chamber containing two platinum electrodes (Warner), with triggering provided through a Digidata 1332A digitizer and pCLAMP 10 software (Molecular Devices). Action potentials were triggered by 1 ms 80 V field potentials delivered at 5 Hz. To prevent recurrent activity the HBS bath solution was supplemented with synaptic blockers 10 μM 2,3-Dioxo-6-nitro-1,2,3, 4-tetrahydrobenzo[f]quinoxaline-7-sulfonamide (NBQX; Santa Cruz Biotechnology) and 25 μM DL-2-Amino-5-phosphonopentanoic acid (APV; Sigma-Aldrich). Functional imaging of BeRST 1 was performed using the EMCCD camera and a 63× objective. BeRST 1 was excited with a 631 nm light (LED; 631 nm, 28 nm bandpass) with an intensity of 127 W/cm^2. Emission from BeRST 1 was collected with a 680/10 nm bandpass emission filter (after passing through a quadruple dichroic mirror (432/38 nm, 509/22 nm, 586/40 nm, 654 nm LP) or for GCaMP6s and ASAP experiments a QUAD filter (quadruple emission filter (430/32 nm, 508/14 nm, 586/30 nm, 708/98 nm) after passing through the quadruple dichroic mirror. Optical sampling rate of BeRST 1 imaging was 0.5-0.53 kHz, except when imaging with ASAP1 (1.25 kHz). Green spectrum genetic tools (GFP, GCaMP6s and ASAP1) were illuminated using 475 nm light (LED; 475 nm, 34 nm bandpass). For functional imaging an intensity of 33 W/cm^2 for GCaMP6s and 200 W/cm^2 for the more weakly fluorescent ASAP1 was used, which is the maximum 475 nm LED intensity for the system. Emission was collected with a 540/50 nm bandpass filter after passing through a 510 nm longpass dichroic. Functional imaging of GCaMP6s and ASAP was performed at 40 Hz and 1.25 kHz, respectively. Images showing cellular morphology were performed by switching to a lower magnification 20× objective in conjunction with either the EMCCD (GCaMP6s/ASAP1) or sCMOS (GFP) camera.
as §1, with “For comparisons of action potentials recorded electrophysiologically and optically, imaging traces were analyzed using spike detection algorithms in the Clampfit 10 software (Molecular Devices). For cross-excitation quantification images were background subtracted. ROIs were made by thresholding to the 25% of the maximum pixel intensity to remove non-stained areas. Mean intensity values for stained neurons were calculated.” left out

rat hippocampal neurons [5] = assay: Action potential imaging in patch-clamped (current clamp) hippocampal neurons; format: cell-based; conditions: 1.8 kHz optical sampling, n=7 cells
Procedure: Hippocampi were dissected from embryonic day 18 Sprague Dawley rats (Charles River Laboratory) in cold sterile HBSS (zero Ca^2+, zero Mg^2+). All dissection products were supplied by Invitrogen, unless otherwise stated. Hippocampal tissue was treated with trypsin (2.5%) for 15 min at 37° C. The tissue was triturated using fire polished Pasteur pipettes, in minimum essential media (MEM) supplemented with 5% fetal bovine serum (FBS; Thermo Scientific), 2% B-27, 2% 1M D-glucose (Fisher Scientific) and 1% glutamax. […]
as §1, with “All example traces were not averaged. For comparisons of action potentials recorded electrophysiologically and optically, imaging traces were analyzed using spike detection algorithms in the Clampfit 10 software (Molecular Devices).” left out, “ROIs were made by thresholding to the 25% of the maximum pixel intensity to remove non-stained areas.” left out, “calculated. […]” for “calculated.”

[6] = in CH3OH; cited from earlier work
[7] = aqueous buffer (50 mM TBS, pH 7.5, 0.1% SDS)

In the case of `COc1cc(N(C)C)ccc1/C=C/c1ccc(/C=C/c2ccc(C3=C4C=CC(=[N+](C)C)C=C4[Si](C)(C)c4cc(N(C)C)ccc43)c(S(=O)(=O)[O-])c2)cc1` [BeRST 1, 5-((E)-4-((E)-4-(Dimethylamino)-2-methoxystyryl)styryl)-2-(7-(dimethylamino)-3-(dimethyliminio)-5,5-dimethyl-3,5-dihydrodibenzo[b,e]silin-10-yl)benzenesulfonate], the “emission with 390 nm excitation, share of full emission” value [1] is reported as 35%, the “emission with 475 nm excitation compared to excitation at 630 nm” value [1] is reported as roughly 7% and the voltage sensitivity (HEK cells; HEK cells loaded with 1 μM dye, whole-cell voltage clamp, n=15 cells) is reported as “approximately 24%±5%”. For the same compound, the “voltage sensitivity, fractional change in fluorescence” value (HEK cells; excited at 390 nm (3.3 W/cm^2)) was 28 % ΔF/F per 100 mV, the “voltage sensitivity, fractional change in fluorescence” value (HEK cells; excited at 631 nm (6.7 W/cm^2)) was 26 % ΔF/F per 100 mV and the “linearity of fluorescence response to membrane potential” value (HEK cells; range spanning ±100 mV) was “linear”. For the same compound, the “effect on action potential amplitude, duration, rise time, decay time, cellular capacitance” value (rat hippocampal neurons [2]) was “No difference; also recorded: No statistically significant differences”, the “quantum yield (Φfl)” value ([3]; TBS/SDS aqueous buffer) was 0.017 and the emission maximum [3] was 683 nm. The “absorbance / excitation centered at” value [3, 7] was 658 nm, the “extinction coefficient at the incident irradiation” value ([3]; at incident irradiation (631 nm BeRST 1, 475 nm VF2.1.Cl)) was 150,000 and the “quantum yield (Φfl)” value ([3]; methanol) was 0.022. The “change in fluorescence per action potential” value (rat hippocampal neurons [4]; field stimulation, GFP-expressing cells, n=5 pairs of cells) was 8.7±0.8 % ΔF/F, the “change in fluorescence per action potential” value (rat hippocampal neurons [4]; field stimulation, cells not expressing GFP) was “approximately 9.2 % ΔF/F” and the “optical response for action potentials” value (rat hippocampal neurons [4]; field stimulation, n=5 cells) was 17.8 % ΔF/F. For the same compound, the “voltage transient for a single evoked action potential” value (rat hippocampal neurons [4]; neuron expressing GCaMP6s and stained with BeRST 1) was “approximately 15 % ΔF/F”, the “increase in relative fluorescence to evoked train of action potentials” value (rat hippocampal neurons [4]; neurons expressing ASAP1 and stained with BeRST 1, S.E.M., n=4 cells) was 15%±2.1% and the “resolution of individually evoked action potentials in trains” value (rat hippocampal neurons [4]; trains at 5, 10 and 20 Hz) was “visible in the BeRST 1 channel at all frequencies”. The “FWHM duration of action potentials, optical record” value (rat hippocampal neurons [5]; electrophysiological record 1.65±0.15 ms) was 1.97 ± 0.14 ms and the “optical response for action potentials” value (rat hippocampal neurons [5]; current clamp evoked action potentials) was “approximately 9.5 % ΔF/F”.
For cresyl violet, the “quantum yield of reference standard” value [6] is listed as 0.54.
For `CN(C)c1ccc2c(c1)[Si](C)(C)C1=CC(=[N+](C)C)C=CC1=C2c1ccccc1S(=O)(=O)[O-]` [BR, 2-(7-(Dimethylamino)-3-(dimethyliminio)-5,5-dimethyl-3,5-dihydrodibenzo[b,e]silin-10-yl) benzenesulfonate], the “emission with 390 nm excitation, share of full emission” value [1] was 16%, the “emission with 475 nm excitation compared to excitation at 630 nm” value [1] was “approximately 1%” and the “quantum yield (Φfl)” value ([3]; TBS/SDS aqueous buffer) was 0.24. For the same compound, the emission maximum [3] was 681 nm, the “absorbance / excitation centered at” value [3, 7] was 658 nm and the extinction coefficient [3, 7] was 150,000 M^−1 cm^−1. The “quantum yield (Φfl)” value ([3]; methanol) was 0.32, the “change in absorbance with pH (spirocyclization)” value ([3]; pH 2.5 to 9) was “no change in absorbance” and the “absorbance vs. solvent dielectric constant (solvatochromism)” value ([3]; ε=6 (10% water/dioxane v/v) to ε=71 (90% water/dioxane v/v)) was “remains unchanged”.
